Experimental data taken from publication PMC8147293, “Library of Selenocyanate and Diselenide Derivatives as In Vivo Antichagasic Compounds Targeting Trypanosoma cruzi Mitochondrion” (Pharmaceuticals, 2021).
Read-outs that look alike come from different tables or passages of the source.

Key:
[1] = tested on: Trypanosoma cruzi; assay: PCR of seven organs/tissues of treated BALB/c mice (Spliced Leader sequence); type: in vivo
Description: To assess the efficacy of potential candidates by confirming the absence of infection in the target locations, PCR was carried out at the end of the in vivo timeline (Figure 2C). PCR was positive in seven organs/tissues for the untreated (control) mice groups in both phases, showing the presence of the typical nested amastigotes of the chronic CD.
(§1) Infection was carried out by intraperitoneal inoculation of 5 × 10^5 BTs of T. cruzi per mouse in 0.2 mL PBS [56]. The mice were treated by oral route (~200 µL) once daily for 5 consecutive days. The treatment for mice treated in the acute and chronic phases began when the infection was confirmed (9th day post-infection (dpi)) and was established that the animals had entered the chronic phase (100th dpi), respectively.
(§2) The mice were divided into six groups (n = 3 per group): 0, negative control group (uninfected and untreated mice); I, positive control group (infected and untreated mice); II, BZN group (mice infected and treated with BZN); III, 8 group (mice infected and treated with 8); IV, 10 group (mice infected and treated with 10); V, 15 group (mice infected and treated with 15). The tested compounds and BZN were prepared at 2 mg·mL^−1 in an aqueous suspension vehicle containing 5% (v/v) DMSO and 0.5% (w/v) hydroxypropyl methylcellulose, as previously reported. Therefore, doses of 20 mg·kg^−1 per day were administered for 5 consecutive days, and vehicle only was administered in the negative and positive control groups.
(§3) All in vivo assays for the evaluation of compounds in the acute and chronic CD (Scheme 1)—monitoring of parasitemia, immunosuppression, PCR [59, 60], ELISA [56], and clinical analysis [56]—were performed as previously described. PCR was based on the Spliced Leader (SL) intergenic region sequence of T. cruzi (for detailed description, see literature reported previously).
Figure 2 (A) Parasitemia profiles of each group of mice infected with Trypanosoma cruzi and treated during the acute Chagas disease over a period of 55 days: control (untreated), benznidazole (BZN), 8, 10 and 15. Treatment days are represented in grey. […]. (B) Parasitemia reactivation by fresh blood in the chronic Chagas disease after the immunosuppression cycles for each group of mice treated during the acute and chronic phases of the disease: control (untreated), benznidazole (BZN), 8, 10, and 15. […]. (C) PCR analysis of seven organs/tissues with the Trypanosoma cruzi Spliced Leader (SL) intergenic region sequence in the chronic Chagas disease for each group of mice treated during the acute and chronic phases of the disease: (a) control (untreated), (b) benznidazole, (c) 8, (d) 10, and (e) 15.

[2] = type: in vivo; details: BALB/c mice, 20 mg/kg per day for 5 days
Description: Finally, biochemical analyses were performed to assess the toxicity associated to the treatment of compound 8. Kidney, heart and liver biochemical markers were measured, including values from uninfected and BZN-treated mice (Table S2). […] The low toxicity allows compound 8 to be tested at higher doses, establishing an improved treatment schedule based on pharmacokinetics in order to reach a total parasite clearance.
as §3

[3] = tested on: Trypanosoma cruzi Fe-SOD; assay: SOD enzymatic inhibition, Fe-SOD; type: biochemical; details: at 100 µM
Description: Excreted Fe-SOD protein—obtained and quantified as previously described [64]—and commercial Cu/Zn-SOD from human erythrocytes (Sigma-Aldrich) were exposed to the tested compounds at a concentration range from 100 to 0.1 µM to determine in vitro activities using the method previously described.

[4] = tested on: Trypanosoma cruzi amastigotes in Vero cells; assay: Infection rate and amastigotes per Vero cell over 10 days; type: cell-based; details: IC25 concentrations, measured at 2 days intervals for 10 days
Description: Before going ahead on in vivo trials, the in vitro infection rate and the average number of amastigotes per Vero cell were also measured at 2 days intervals for 10 days after treating the infected cultures with BZN and potential candidates (8, 10, and 15) (Figure 1) at ICH25 concentrations resulting from amastigotes screening. […]. Fast-acting drugs are urgently needed, and this feature is an additional advantage since they can eliminate the parasite in a few doses.
(§4) Trypanocidal activity against amastigotes was determined according to the literature reported previously. […]. […] Each compound concentration was tested in triplicate in four separate determinations.
Figure 1 (A) Percentage of infected Vero cells and (B) number of amastigotes of Trypanosoma cruzi per Vero cell exposed to benznidazole (BZN), 8, 10 and 15. Values constitute means of three separate determinations ± standard deviation. * Significant differences between untreated and treated parasites for α = 0.05. dpi, days post-infection.

[5] = tested on: Trypanosoma cruzi; assay: Parasitemia monitoring in infected BALB/c mice, acute Chagas disease; type: in vivo; details: oral 20 mg/kg per day for 5 days from 9th dpi, versus untreated
Description: as §1, §2, §3

[6] = tested on: Trypanosoma cruzi; assay: Anti-T. cruzi IgG (ELISA) and splenomegaly in treated BALB/c mice; type: in vivo
Description: Otherwise, the immune status of the mice was evaluated—through the titer of total anti-T. cruzi IgG and the splenomegaly (Figure S1)—since it is a characteristic linked to the parasite load and the effectiveness ascribed to the potential candidates. […].
as §3
Figure S1. A) Anti-Trypanosoma cruzi immunoglobulin G levels, expressed in absorbance at 492 nm, at different days post-infection (dpi) for each group of mice treated during the acute and chronic phases of Chagas disease: control (untreated), benznidazole (BZN), 8, 10 and 15. Blank and uninfected mice are also […]
included. […] Values are the means of three mice ± standard deviation. (IS) immunosuppression. * Significant differences between untreated and treated mice for α =
0.05. B) Weight percentage of spleens in the chronic Chagas disease for each group of mice treated during the acute and chronic phases of the disease: control (untreated), benznidazole (BZN), 8, 10 and 15. Values are the means of three mice ± standard deviation. In brackets: reduction of splenomegaly in comparison to […]
(1 picture or pasted object on this page, not shown here)

[7] = tested on: epimastigotes of T. cruzi Arequipa strain; assay: Screening against extracellular epimastigotes (resazurin); type: cell-based, Trypanosoma cruzi; details: for IC50: Trypanosoma cruzi
Description: Trypanocidal activity against epimastigotes of T. cruzi Arequipa strain (MHOM/Pe/2011/Arequipa, discrete typing unit V) was tested as previously described. In short, 5 × 10^5 epimastigotes·mL^−1 were treated by adding the tested compounds at a concentration range from 100 to 0.2 µM in 96-well microplates (200 µL·well^−1) for 48 h. Subsequently, resazurin sodium salt (Sigma-Aldrich) was added to be incubated for further 24 h. Finally, the absorbance was measured, and the trypanocidal activity was expressed as the IC50 (inhibitory concentration 50) using GraphPad Prism 6 software. Each compound concentration was tested in triplicate in three independent experiments.

[8] = tested on: Trypanosoma cruzi intracellular amastigotes; assay: Screening against intracellular amastigotes in Vero cells (Giemsa counting); type: cell-based
Description: as §4

## FC(F)(F)c1ccc(C[Se][Se]Cc2ccc(C(F)(F)F)cc2)cc1 [compound 8]
[1]; mice treated in acute CD
  negative PCR (parasite-free locations): 3/7
[1]; mice treated in chronic CD
  negative PCR (parasite-free locations): 4/7
[2]
  death and body mass loss after treatment: none of the mice died nor lost more than 10% body mass
  kidney, heart and liver biochemical markers: disturbed 2 days after treatment
[3]
  Fe-SOD inhibition: 100%
[4]
  infection rate and average number of amastigotes per Vero cell: decrease in both infection rate and number of amastigotes per cell in a time-dependent manner
[5]
  parasitemia levels (counting BTs) during the acute CD: trypanocidal activity was even stronger
[6]; from the beginning to the end of the in vivo timeline
  IgG levels in the acute treatment: very low IgG levels
[6]; treated BALB/c mice versus untreated, excluding IgG levels of chronic CD
  total anti-T. cruzi IgG levels and splenomegaly: significant reduction
[7]; IC50 Vero cells/IC50 epimastigotes
  Selectivity Index Epimast.: 23
[7]; Table 1, T. cruzi epimastigotes, 48 h treatment + 24 h resazurin, read-out: Activity IC50 Epimast.
  IC50: 1900 ± 100 nM
[7]; Table S1, cultured epimastigote form of T. cruzi, read-out: Activity IC50
  IC50: ≤ 10000 nM
[8]; IC50 Vero cells/IC50 amastigotes
  Selectivity Index Amast.: 55
[8]; Trypanosoma cruzi, Table 1, intracellular amastigotes in Vero cells, 72 h, read-out: Activity IC50 Amast.
  IC50: 800 ± 200 nM
